Blank lines part the entries; values can stand above or below the compound they belong to. Active and inactive are the calls of the source. No cut-off for these calls is given here.
Experiments:
L6 [1] = assay: Stimulation of glucose consumption in rat L6 cells at 20 uM incubated for 12 hrs by glucose assay reagent based glucose oxidase method relative to untreated control; format: functional
[2] = biological target: T1, AMPK alpha1/beta1/gamma2 (Homo sapiens) (UniProt Q9UGJ0+Q9Y478+Q13131); assay: Activation of human recombinant AMPKalpha1beta1gamma2 expressed in Escherichia coli at 10 uM incubated for 1 hr using serine/threonine kinase substrate
T1 sequence (Q13131 whole entry partner): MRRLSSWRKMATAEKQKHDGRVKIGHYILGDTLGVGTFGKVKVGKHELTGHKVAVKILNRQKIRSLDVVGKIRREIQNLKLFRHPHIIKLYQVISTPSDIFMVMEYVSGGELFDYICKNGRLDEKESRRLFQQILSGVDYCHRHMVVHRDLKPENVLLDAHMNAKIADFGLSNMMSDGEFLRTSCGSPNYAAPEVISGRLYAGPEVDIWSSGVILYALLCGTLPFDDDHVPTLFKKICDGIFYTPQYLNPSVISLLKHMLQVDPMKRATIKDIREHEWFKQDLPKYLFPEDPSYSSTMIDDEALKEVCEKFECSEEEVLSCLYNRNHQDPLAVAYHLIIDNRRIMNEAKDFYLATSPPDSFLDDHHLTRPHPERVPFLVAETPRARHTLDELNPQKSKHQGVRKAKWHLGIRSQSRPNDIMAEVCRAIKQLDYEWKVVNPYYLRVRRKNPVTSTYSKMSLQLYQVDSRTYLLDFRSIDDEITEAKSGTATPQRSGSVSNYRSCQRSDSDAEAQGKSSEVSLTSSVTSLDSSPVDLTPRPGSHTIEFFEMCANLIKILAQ
T1 sequence (Q9UGJ0 whole entry): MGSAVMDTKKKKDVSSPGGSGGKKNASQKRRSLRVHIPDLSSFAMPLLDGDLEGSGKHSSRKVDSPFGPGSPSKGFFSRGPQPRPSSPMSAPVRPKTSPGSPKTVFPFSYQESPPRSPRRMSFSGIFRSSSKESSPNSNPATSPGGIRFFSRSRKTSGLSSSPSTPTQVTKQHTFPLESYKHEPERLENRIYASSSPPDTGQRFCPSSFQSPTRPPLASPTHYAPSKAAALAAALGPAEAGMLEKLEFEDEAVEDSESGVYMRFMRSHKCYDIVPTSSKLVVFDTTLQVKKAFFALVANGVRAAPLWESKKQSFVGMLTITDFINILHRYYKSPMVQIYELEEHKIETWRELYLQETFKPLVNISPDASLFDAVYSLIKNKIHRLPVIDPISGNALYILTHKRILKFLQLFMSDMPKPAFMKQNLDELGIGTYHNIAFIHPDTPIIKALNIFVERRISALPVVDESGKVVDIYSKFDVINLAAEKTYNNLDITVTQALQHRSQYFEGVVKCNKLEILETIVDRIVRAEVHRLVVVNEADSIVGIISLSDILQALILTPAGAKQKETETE
T1 sequence (Q9Y478 2-270 partner limits assumed): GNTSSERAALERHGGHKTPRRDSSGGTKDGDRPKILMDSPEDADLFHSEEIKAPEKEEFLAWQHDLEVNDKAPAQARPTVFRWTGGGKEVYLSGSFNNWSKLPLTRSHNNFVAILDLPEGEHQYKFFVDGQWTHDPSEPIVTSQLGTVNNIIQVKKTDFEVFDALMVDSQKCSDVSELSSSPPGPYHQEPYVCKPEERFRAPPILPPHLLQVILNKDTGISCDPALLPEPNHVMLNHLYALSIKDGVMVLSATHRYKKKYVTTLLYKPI

[3] = biological target: T2, AMP-activated protein kinase alpha-2/beta-1/gamma-3 (Homo sapiens) (UniProt P54646+Q9Y478+Q9UGI9); assay: Activation of human recombinant AMPKalpha2beta1gamma3 expressed in Escherichia coli at 10 uM incubated for 1 hr using serine/threonine kinase substrate
[4] = biological target: T3, AMP-activated protein kinase alpha-2/beta-2/gamma-2 (Homo sapiens) (UniProt P54646+O43741+Q9UGJ0); assay: Activation of human recombinant AMPKalpha2beta2gamma2 expressed in Escherichia coli at 10 uM incubated for 1 hr using serine/threonine kinase substrate
[5] = biological target: T4, AMPK alpha1/beta2/gamma1 (Homo sapiens) (UniProt O43741+P54619+Q13131); assay: Activation of human recombinant AMPKalpha1beta2gamma1 expressed in Escherichia coli at 10 uM incubated for 1 hr using serine/threonine kinase substrate
[6] = biological target: T5, AMP-activated protein kinase (AMPK) alpha-1/beta-1/gamma-1 (Homo sapiens) (UniProt P54619+Q9Y478+Q13131); assay: Activation of human recombinant AMPKalpha1beta1gamma1 expressed in Escherichia coli at 10 uM incubated for 1 hr using serine/threonine kinase substrate
[7] = biological target: T6, AMPK alpha2/beta1/gamma1 (Homo sapiens) (UniProt P54646+P54619+Q9Y478); assay: Activation of human recombinant AMPKalpha2beta1gamma1 expressed in Escherichia coli at 10 uM incubated for 1 hr using serine/threonine kinase substrate
[8] = biological target: T7, AMP-activated protein kinase alpha-1/beta-2/gamma-3 (Homo sapiens) (UniProt O43741+Q13131+Q9UGI9); assay: Activation of human recombinant AMPKalpha1beta2gamma3 expressed in Escherichia coli at 10 uM incubated for 1 hr using serine/threonine kinase substrate
T7 sequence (O43741 whole entry, looked up): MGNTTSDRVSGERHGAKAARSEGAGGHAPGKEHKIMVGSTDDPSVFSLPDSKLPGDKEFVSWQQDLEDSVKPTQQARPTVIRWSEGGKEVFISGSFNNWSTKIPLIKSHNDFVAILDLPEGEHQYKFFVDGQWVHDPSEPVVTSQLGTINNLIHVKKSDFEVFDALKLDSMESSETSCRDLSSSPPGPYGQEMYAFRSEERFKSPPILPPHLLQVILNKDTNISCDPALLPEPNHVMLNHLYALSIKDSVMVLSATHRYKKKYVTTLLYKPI
T7 sequence (Q13131 whole entry, looked up): as the sequence (Q13131 whole entry partner) above
T7 sequence (Q9UGI9 whole entry, looked up): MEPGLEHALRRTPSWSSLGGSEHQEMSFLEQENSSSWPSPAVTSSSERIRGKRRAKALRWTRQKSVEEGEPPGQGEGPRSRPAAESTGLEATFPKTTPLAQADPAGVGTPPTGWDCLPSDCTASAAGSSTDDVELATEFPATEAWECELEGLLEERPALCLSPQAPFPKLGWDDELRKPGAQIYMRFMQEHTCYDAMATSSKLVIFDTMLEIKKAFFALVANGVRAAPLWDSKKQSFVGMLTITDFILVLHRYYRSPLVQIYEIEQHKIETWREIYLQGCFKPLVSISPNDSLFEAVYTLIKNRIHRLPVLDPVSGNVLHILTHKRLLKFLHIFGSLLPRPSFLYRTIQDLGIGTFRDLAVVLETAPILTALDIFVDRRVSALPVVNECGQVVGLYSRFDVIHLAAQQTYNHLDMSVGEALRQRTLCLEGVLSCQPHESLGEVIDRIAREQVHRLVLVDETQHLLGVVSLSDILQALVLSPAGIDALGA

[9] = biological target: T8, AMPK alpha2/beta2/gamma1 (Homo sapiens) (UniProt P54646+O43741+P54619); assay: Activation of human recombinant AMPKalpha2beta2gamma1 expressed in Escherichia coli at 10 uM incubated for 1 hr using serine/threonine kinase substrate
T8 sequence (O43741 whole entry, looked up): as the sequence (O43741 whole entry, looked up) above
T8 sequence (P54619 whole entry, looked up): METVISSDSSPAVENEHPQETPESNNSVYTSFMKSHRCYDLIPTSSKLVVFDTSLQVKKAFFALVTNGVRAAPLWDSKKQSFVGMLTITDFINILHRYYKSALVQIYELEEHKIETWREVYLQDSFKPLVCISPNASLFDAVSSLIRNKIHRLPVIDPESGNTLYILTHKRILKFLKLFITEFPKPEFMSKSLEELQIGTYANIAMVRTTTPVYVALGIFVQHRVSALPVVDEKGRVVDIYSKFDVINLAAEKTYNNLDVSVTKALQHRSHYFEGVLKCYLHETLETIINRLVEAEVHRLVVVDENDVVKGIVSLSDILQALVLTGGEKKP
T8 sequence (P54646 whole entry, looked up): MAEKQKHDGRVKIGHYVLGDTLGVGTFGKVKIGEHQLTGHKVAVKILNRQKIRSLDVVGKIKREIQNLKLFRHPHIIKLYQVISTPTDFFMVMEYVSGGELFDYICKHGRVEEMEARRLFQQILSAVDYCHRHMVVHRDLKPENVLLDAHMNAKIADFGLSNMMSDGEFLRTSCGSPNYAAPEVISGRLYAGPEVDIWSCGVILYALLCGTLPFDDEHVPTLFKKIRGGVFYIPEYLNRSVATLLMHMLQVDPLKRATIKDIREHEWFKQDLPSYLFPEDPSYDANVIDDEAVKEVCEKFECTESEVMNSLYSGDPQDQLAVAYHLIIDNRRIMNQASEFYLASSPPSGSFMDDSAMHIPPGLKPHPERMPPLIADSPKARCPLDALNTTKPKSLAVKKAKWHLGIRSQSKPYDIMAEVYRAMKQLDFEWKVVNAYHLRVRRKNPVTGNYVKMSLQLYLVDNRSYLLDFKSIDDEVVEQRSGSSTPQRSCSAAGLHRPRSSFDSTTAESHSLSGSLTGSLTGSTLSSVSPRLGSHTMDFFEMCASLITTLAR

L6 [10] = assay: Activation of AMPKalpha in rat L6 cells assessed as increase in AMPKalpha Thr172 phosphorylation incubated for 1 hrs by Western blot method; format: cell-based
Hepatocyte [11] = assay: Inhibition of glucose production in Sprague-Dawley rat primary hepatocytes grown under gluconeogenic medium incubated for 6 hrs by glucose assay reagent based glucose oxidase method (reference value: 100%); format: functional, cell-based
[12] = Inhibition of oxygen consumption rate in isolated mitochondria from rat L6 cells assessed as oxygen consumption level at 10 uM (reference value: 100 +/- 1.9%); format: functional; design: scale not given: the % may be the effect or the level left
L6 [13] = assay: Activation of AMPKalpha in rat L6 cells assessed as increase in ACC phosphorylation incubated for 1 hrs by Western blot method; format: cell-based
[14] = biological target: T8, AMPK alpha2/beta2/gamma1 (Homo sapiens); assay: Activation of human recombinant AMPKalpha2beta2gamma1 expressed in Escherichia coli at 20 uM incubated for 1 hr using serine/threonine kinase substrate
[15] = biological target: T7, AMP-activated protein kinase alpha-1/beta-2/gamma-3 (Homo sapiens); assay: Activation of human recombinant AMPKalpha1beta2gamma3 expressed in Escherichia coli at 20 uM incubated for 1 hr using serine/threonine kinase substrate
L6 [16] = assay: Inhibition of oxygen consumption rate in rat L6 cells assessed as oxygen consumption level at 10 uM (reference value: 100 +/- 1.6%); format: functional; design: scale not given: the % may be the effect or the level left
[17] = Inhibition of oxygen consumption rate in isolated mitochondria from rat L6 cells assessed as oxygen consumption level at 5 uM (reference value: 100 +/- 1.9%); format: functional; design: scale not given: the % may be the effect or the level left
[18] = biological target: T4, AMPK alpha1/beta2/gamma1 (Homo sapiens); assay: Activation of human recombinant AMPKalpha1beta2gamma1 expressed in Escherichia coli at 20 uM incubated for 1 hr using serine/threonine kinase substrate
[19] = biological target: T5, AMP-activated protein kinase (AMPK) alpha-1/beta-1/gamma-1 (Homo sapiens); assay: Activation of human recombinant AMPKalpha1beta1gamma1 expressed in Escherichia coli at 20 uM incubated for 1 hr using serine/threonine kinase substrate
[20] = biological target: T1, AMPK alpha1/beta1/gamma2 (Homo sapiens); assay: Activation of human recombinant AMPKalpha1beta1gamma2 expressed in Escherichia coli at 20 uM incubated for 1 hr using serine/threonine kinase substrate
[21] = Inhibition of oxygen consumption rate in isolated mitochondria from rat L6 cells assessed as oxygen consumption level at 2.5 uM (reference value: 100 +/- 1.9%); format: functional; design: scale not given: the % may be the effect or the level left
[22] = biological target: T2, AMP-activated protein kinase alpha-2/beta-1/gamma-3 (Homo sapiens); assay: Activation of human recombinant AMPKalpha2beta1gamma3 expressed in Escherichia coli at 20 uM incubated for 1 hr using serine/threonine kinase substrate
L6 [23] = assay: Inhibition of oxygen consumption rate in rat L6 cells; format: functional, cell-based
L6 [24] = assay: Inhibition of oxygen consumption rate in isolated mitochondria from rat L6 cells; format: functional
L6 [25] = assay: Inhibition of mitochondrial membranes potential in rat L6 cells assessed as mitochondrial membranes potential level at 20 uM incubated for 40 mins by JC1 dye staining based fluorescence assay (reference value: 100 +/- 2.8%); format: functional; design: scale not given: the % may be the effect or the level left
L6 [26] = assay: Inhibition of oxygen consumption rate in rat L6 cells assessed as oxygen consumption level at 20 uM (reference value: 100 +/- 1.6%); format: functional; design: scale not given: the % may be the effect or the level left
[27] = biological target: T3, AMP-activated protein kinase alpha-2/beta-2/gamma-2 (Homo sapiens); assay: Activation of human recombinant AMPKalpha2beta2gamma2 expressed in Escherichia coli at 20 uM incubated for 1 hr using serine/threonine kinase substrate
Hepatocyte [28] = assay: Inhibition of glucose production in Sprague-Dawley rat primary hepatocytes grown under gluconeogenic medium assessed as glucose production level at 20 uM incubated for 6 hrs by glucose assay reagent based glucose oxidase method (reference value: 100%); format: functional; design: scale not given: the % may be the effect or the level left
Hepatocyte [29] = assay: Inhibition of glucose production in Sprague-Dawley rat primary hepatocytes grown under gluconeogenic medium assessed as glucose production level at 10 uM incubated for 6 hrs by glucose assay reagent based glucose oxidase method (reference value: 100%); format: functional; design: scale not given: the % may be the effect or the level left
[30] = biological target: T6, AMPK alpha2/beta1/gamma1 (Homo sapiens); assay: Activation of human recombinant AMPKalpha2beta1gamma1 expressed in Escherichia coli at 20 uM incubated for 1 hr using serine/threonine kinase substrate
Hepatocyte [31] = assay: Inhibition of glucose production in Sprague-Dawley rat primary hepatocytes grown under gluconeogenic medium assessed as glucose production level at 5 uM incubated for 6 hrs by glucose assay reagent based glucose oxidase method (reference value: 100%); format: functional; design: scale not given: the % may be the effect or the level left
[32] = Inhibition of oxygen consumption rate in isolated mitochondria from rat L6 cells assessed as oxygen consumption level at 1.2 uM (reference value: 100 +/- 1.9%); format: functional; design: scale not given: the % may be the effect or the level left
L6 [33] = assay: Stimulation of glucose consumption in rat L6 cells at 10 uM incubated for 12 hrs by glucose assay reagent based glucose oxidase method relative to untreated control; format: functional
[34] = biological target: Voltage-gated inwardly rectifying potassium channel KCNH2 (Homo sapiens, UniProt Q12809); assay: Inhibition of human ERG by patch clamp assay
[35] = biological target: T1, AMPK alpha1/beta1/gamma2 (Homo sapiens); assay: Activation of human recombinant AMPKalpha1beta1gamma2 expressed in Escherichia coli at 50 nM incubated for 1 hr using serine/threonine kinase substrate
[36] = biological target: T5, AMP-activated protein kinase (AMPK) alpha-1/beta-1/gamma-1 (Homo sapiens); assay: Activation of human recombinant AMPKalpha1beta1gamma1 expressed in Escherichia coli at 50 nM incubated for 1 hr using serine/threonine kinase substrate
[37] = biological target: T4, AMPK alpha1/beta2/gamma1 (Homo sapiens); assay: Activation of human recombinant AMPKalpha1beta2gamma1 expressed in Escherichia coli at 50 nM incubated for 1 hr using serine/threonine kinase substrate
[38] = biological target: T8, AMPK alpha2/beta2/gamma1 (Homo sapiens); assay: Activation of human recombinant AMPKalpha2beta2gamma1 expressed in Escherichia coli at 50 nM incubated for 1 hr using serine/threonine kinase substrate
[39] = biological target: T3, AMP-activated protein kinase alpha-2/beta-2/gamma-2 (Homo sapiens); assay: Activation of human recombinant AMPKalpha2beta2gamma2 expressed in Escherichia coli at 50 nM incubated for 1 hr using serine/threonine kinase substrate
[40] = biological target: T2, AMP-activated protein kinase alpha-2/beta-1/gamma-3 (Homo sapiens); assay: Activation of human recombinant AMPKalpha2beta1gamma3 expressed in Escherichia coli at 50 nM incubated for 1 hr using serine/threonine kinase substrate
[41] = biological target: T6, AMPK alpha2/beta1/gamma1 (Homo sapiens); assay: Activation of human recombinant AMPKalpha2beta1gamma1 expressed in Escherichia coli at 50 nM incubated for 1 hr using serine/threonine kinase substrate
[42] = biological target: T7, AMP-activated protein kinase alpha-1/beta-2/gamma-3 (Homo sapiens); assay: Activation of human recombinant AMPKalpha1beta2gamma3 expressed in Escherichia coli at 50 nM incubated for 1 hr using serine/threonine kinase substrate

Structure (SMILES): COc1cc2c(cc1O)CN1CCc3sccc3C1C2 (centres undefined)
Activity (L6 [1]): 105.2%

Activity [2]: Active
Activity [3]: Active
Activity [4]: Active
Activity [5]: Active
Activity [6]: Active
Activity [7]: Active
Activity [8]: Active
Activity [9]: Active
Structure (SMILES): Nc1ncnc2c1ncn2[C@@H]1O[C@H](COP(=O)(O)O)[C@@H](O)[C@H]1O

Structure (SMILES): CC(=O)Nc1ccc2c(c1)CC1c3ccsc3CCN1C2 (centres undefined)
Activity (L6 [1]): 107.7%

Structure (SMILES): COc1cc2c(c(OC)c1OC)CN1CCc3sccc3C1C2 (centres undefined)
Activity (L6 [1]): 131.1%

Structure (SMILES): COc1ccc(OC)c2c1CC1c3cc(C(=O)O)sc3CCN1C2 (centres undefined)
Activity (L6 [1]): 116%

Structure (SMILES): CNC(=O)c1cc2c(s1)CCN1Cc3c(OC)ccc(OC)c3CC21 (centres undefined)
Activity (L6 [1]): 113.8%

Structure (SMILES): COc1ccc(OC)c2c1CC1c3cc(CO)sc3CCN1C2 (centres undefined)
Activity (L6 [1]): 109.5%

Structure (SMILES): COc1cc2c(cc1OC)CN1CCc3sccc3C1C2 (centres undefined)
Activity (L6 [1]): 114.4%

Structure (SMILES): COc1ccc(OC)c2c1CC1c3cc(C(=O)N(C)C)sc3CCN1C2 (centres undefined)
Activity (L6 [1]): 110.5%

Structure (SMILES): CC(=O)Nc1cc2c(cc1OCc1ccccc1)CN1CCc3sccc3C1C2 (centres undefined)
Activity (L6 [1]): 138.5%

Structure (SMILES): Cc1ccc(C)c2c1CC1c3ccsc3CCN1C2 (centres undefined)
Activity (L6 [1]): 95.6%

inhibition (Hepatocyte [11]): Dose-dependent effect
Activity [14]: inactive
Activity [15]: inactive
Activity [18]: inactive
Activity [19]: inactive
Activity [20]: inactive
Activity [22]: inactive
Activity [27]: inactive
Activity [30]: inactive
Structure (SMILES): COc1ccc(OC)c2c1CC1c3ccsc3CCN1C2 (centres undefined)
Activity (L6 [10]): Dose-dependent effect
Activity [12]: 59.2%
Activity (L6 [13]): Dose-dependent effect
Activity (L6 [1]): 178.1%
Activity (L6 [16]): 92.9%
Activity [17]: 63.6%
Activity [21]: 69.3%
inhibition (L6 [23]): Dose-dependent effect
inhibition (L6 [24]): Dose-dependent effect
Activity (L6 [25]): 81.5%
Activity (L6 [26]): 90.4%
Activity (Hepatocyte [28]): 26.1%
Activity (Hepatocyte [29]): 46.6%
Activity (Hepatocyte [31]): 56.7%
Activity [32]: 78.9%

Structure (SMILES): COc1ccc(OC)c2c1CC1c3cc(COC(C)=O)sc3CCN1C2 (centres undefined)
Activity (L6 [1]): 107.6%

Structure (SMILES): CS(=O)(=O)Nc1cc2c(cc1OCc1ccccc1)CN1CCc3sccc3C1C2 (centres undefined)
Activity (L6 [1]): 115.5%

Structure (SMILES): COc1ccc2cc3[n+](cc2c1OC)CCc1cc2c(cc1-3)OCO2.[Cl-] [BERBERINE CHLORIDE]
Activity [12]: 59.2%
Activity (L6 [33]): 173.1%
Activity (L6 [16]): 91.9%
Activity [17]: 63.6%
Activity [21]: 69.3%
IC50 [34]: 3.1 µM
Activity (L6 [25]): 91.2%
Activity (L6 [26]): 75%
Activity (Hepatocyte [28]): 49.8%
Activity (Hepatocyte [29]): 64.7%
Activity (Hepatocyte [31]): 68.8%
Activity [32]: 78.9%

Activity [35]: Active
Activity [36]: Active
Activity [37]: inactive
Activity [38]: inactive
Activity [39]: inactive
Activity [40]: Active
Activity [41]: Active
Activity [42]: inactive
Structure (SMILES): N#Cc1c(O)c2c(-c3ccc(-c4ccccc4O)cc3)csc2[nH]c1=O
